Test results as given in patent US6667413B2, “Uracil compounds and use thereof” (Sumitomo Chemical Company, Limited, priority 1999, dated 2003).

Experiments:
Type in all cases: in vivo
[1] = tested on: velvetleaf (Abutilon theophrasti); assay: Test Example 3: foliar treatment, herbicidal activity; conditions: foliar spray, 500 g/ha, 7 days after application
Procedure: (§1) A cylindrical plastic pot having a diameter of 10 cm and a depth of 10 cm was filled with soil and then seeded with Ivyleaf morningglory (Ipomoea hederacea), velvetleaf (Abutilon theophrasti) and barnyardgrass (Echinochloa crus-galli). These test plants were grown in a greenhouse for 9 days. After then, each of the compounds 3-16, 3-20 and 3-198 was formulated into an emulsifiable concentrate according to Formulation Example 2 and then diluted to the prescribed amount with water containing a spreading agent and the dilution was uniformly sprayed over the foliage of the test plants with a sprayer at a rate of 1000 liters per hectare. After the application, the test plants were grown in the greenhouse for 7 days, and the herbicidal activity was examined.

[2] = tested on: Ivyleaf morningglory (Ipomoea hederacea); assay: as above; conditions: foliar spray, 500 g/ha, 7 days after application
Procedure: as §1

[3] = tested on: barnyardgrass (Echinochloa crus-galli); assay: as above; conditions: foliar spray, 500 g/ha, 7 days after application
Procedure: as §1

[4] = tested on: velvetleaf (Abutilon theophrasti); assay: Test Example 4: soil surface treatment, herbicidal activity; conditions: sprayed over the surface of the soil, 2000 g/ha, 7 days after application
From the text: (§2) A cylindrical plastic pot having a diameter of 10 cm and a depth of 10 cm was filled with soil and then seeded with Ivyleaf morningglory (Ipomoea hederacea), velvetleaf (Abutilon theophrasti), barnyardgrass (Echinochloa crus-galli) and blackgrass (Alopecurus myosuroides). Then, each of the compounds 3-2,3-11, 3-12, 3-16, 3-20 and 3-198 was formulated into an emulsifiable concentrate according to Formulation Example 2 and then diluted to the prescribed amount with water, and the dilution was uniformly sprayed over the surface of the soil with a sprayer at a rate of 1000 liters per hectare. After the application, the test plants were grown in the greenhouse for 7 days, and the herbicidal activity of the applied composition was examined.

[5] = tested on: Ivyleaf morningglory (Ipomoea hederacea); assay: as above; conditions: sprayed over the surface of the soil, 2000 g/ha, 7 days after application
From the text: as §2

[6] = tested on: blackgrass (Alopecurus myosuroides); assay: as above; conditions: sprayed over the surface of the soil, 2000 g/ha, 7 days after application
From the text: as §2

[7] = tested on: barnyardgrass (Echinochloa crus-galli); assay: as above; conditions: sprayed over the surface of the soil, 2000 g/ha, 7 days after application
From the text: as §2

[8] = tested on: common chickweed (Stellaria media); assay: Test Example 5: foliar treatment, herbicidal activity index; design: key: 0: no or little difference in the degree of germination or growth between the treated and the untreated tested plants at the time of examination; 10: the test plants died complete or their germination or growth was completely inhibited; conditions: foliar spray, 10 g/ha, 9 days after application, index 0 to 10
Procedure: A cylindrical plastic pot having a diameter of 18.5 cm and a depth of 15 cm was filled with soil and then seeded with common chickweed (Stellaria media). These test plants were grown in a greenhouse for 29 days. After then, each of the compound 1-2 and Compound A was formulated into an emulsifiable concentrate according to Formulation Example 2 and then diluted to the prescribed amount with water containing a spreading agent and the dilution was uniformly sprayed over the foliage of the test plants with a sprayer at a rate of 1000 liters per hectare. After the application, the test plants were grown in the greenhouse for 9 days, and the herbicidal activity was examined.

[9] = tested on: velvetleaf (Abutilon theophrasti); assay: Test Example 2: soil surface treatment, herbicidal activity; conditions: sprayed over the surface of the soil, 500 g/ha, 7 days after application
From the text: as §2, with “theophrasti) and” for “theophrasti),”, “crus-galli).” for “crus-galli) and blackgrass (Alopecurus myosuroides).”, “1-1,2-1” for “3-2,3-11, 3-12, 3-16, 3-20”, “3-1” for “3-198”

[10] = tested on: Ivyleaf morningglory (Ipomoea hederacea); assay: as above; conditions: sprayed over the surface of the soil, 500 g/ha, 7 days after application
From the text: as §2, with “theophrasti) and” for “theophrasti),”, “crus-galli).” for “crus-galli) and blackgrass (Alopecurus myosuroides).”, “1-1,2-1” for “3-2,3-11, 3-12, 3-16, 3-20”, “3-1” for “3-198”

[11] = tested on: barnyardgrass (Echinochloa crus-galli); assay: as above; conditions: sprayed over the surface of the soil, 500 g/ha, 7 days after application
From the text: as §2, with “theophrasti) and” for “theophrasti),”, “crus-galli).” for “crus-galli) and blackgrass (Alopecurus myosuroides).”, “1-1,2-1” for “3-2,3-11, 3-12, 3-16, 3-20”, “3-1” for “3-198”

[12] = tested on: velvetleaf (Abutilon theophrasti); assay: Test Example 1: foliar treatment, herbicidal activity; conditions: foliar spray, 125 g/ha, 7 days after application
Procedure: (§3) A cylindrical plastic pot having a diameter of 10 cm and a depth of 10 cm was filled with soil and then seeded with Ivyleaf morningglory (Ipomoea hederacea), velvetleaf (Abutilon theophrasti), barnyardgrass (Echinochloa crus-galli) and blackgrass (Alopecurus myosuroides). These test plants were grown in a greenhouse for 9 days. Then, each of compounds 1-1,2-1, 3-1,3-2, 3-11 and 3-12 was formulated into an emulsifiable concentrate according to Formulation Example 2 and then diluted to the prescribed amount with water containing a spreading agent and the dilution was uniformly sprayed over the foliage of the test plants with a sprayer at a rate of 1000 liters per hectare After the application, the test plants were grown in the greenhouse for 7 days, and the herbicidal activity of the applied composition was determined.

[13] = tested on: Ivyleaf morningglory (Ipomoea hederacea); assay: as above; conditions: foliar spray, 125 g/ha, 7 days after application
Procedure: as §3

[14] = tested on: blackgrass (Alopecurus myosuroides); assay: as above; conditions: foliar spray, 125 g/ha, 7 days after application
Procedure: as §3

[15] = tested on: barnyardgrass (Echinochloa crus-galli); assay: as above; conditions: foliar spray, 125 g/ha, 7 days after application
Procedure: as §3

Row | Compound | growth of velvetleaf [1] | growth of Ivyleaf morningglory [2] | growth of barnyardgrass [3] | emergence of velvetleaf [4] | emergence of Ivyleaf morningglory [5] | emergence of blackgrass [6] | emergence of barnyardgrass [7] | Herbicidal activity [8] | also measured
1 | Cn1c(C(F)(F)F)cc(=O)n(-c2cc(Oc3ccccc3OCC(=O)OC(C)(C)C)c(Cl)cc2F)c1=O [Compound 3-16] | completely controlled | completely controlled | completely controlled | completely controlled | completely controlled | completely controlled | completely controlled | – | –
2 | C=CCOC(=O)COc1ccccc1Oc1cc(-n2c(=O)cc(C(F)(F)F)n(C)c2=O)c(F)cc1Cl [Compound 3-20, allyl [2-{2-chloro-4-fluoro-5-[3-methyl-2,6-dioxo-4-(trifluoromethyl)-1,2,3,6-tetrahydropyrimidin-1-yl]phenoxy}phenoxy]acetate] | completely controlled | completely controlled | completely controlled | completely controlled | completely controlled | completely controlled | completely controlled | – | –
3 | CCOC(=O)C(C)Oc1ccc(Oc2cc(-n3c(=O)cc(C(F)(F)F)n(N)c3=O)c(F)cc2Cl)cc1 (stereo not drawn) [Compound A, reference compound] | – | – | – | – | – | – | – | 5 | –
4 | COC(=O)C(C)Oc1cccc(Oc2cc(-n3c(=O)cc(C(F)(F)F)n(C)c3=O)c(F)cc2Cl)c1 (stereo not drawn) [Compound 2-1, methyl 2-[3-{2-chloro-4-fluoro-5-[3-methyl-2,6-dioxo-4-(trifluoromethyl)-1,2,3,6-tetrahydropyrimidin-1-yl]phenoxy}phenoxy]propionate] | – | – | – | – | – | – | – | – | emergence of velvetleaf [9]: completely controlled; emergence of Ivyleaf morningglory [10]: completely controlled; emergence of barnyardgrass [11]: completely controlled; growth of velvetleaf [12]: completely controlled; growth of Ivyleaf morningglory [13]: completely controlled; growth of blackgrass [14]: completely controlled; growth of barnyardgrass [15]: completely controlled
5 | CC(C)COC(=O)COc1ccccc1Oc1cc(-n2c(=O)cc(C(F)(F)F)n(C)c2=O)c(F)cc1Cl [Compound 3-198, isobutyl [2-{2-chloro-4-fluoro-5-[3-methyl-2,6-dioxo-4-(trifluoromethyl)-1,2,3,6-tetrahydropyrimidin-1-yl]phenoxy}phenoxy]acetate] | completely controlled | completely controlled | completely controlled | completely controlled | completely controlled | completely controlled | completely controlled | – | –
6 | CCOC(=O)C(C)Oc1ccc(Oc2cc(-n3c(=O)cc(C(F)(F)F)n(C)c3=O)c(F)cc2Cl)cc1 (stereo not drawn) [Compound 1-2, ethyl 2-[4-{2-chloro-4-fluoro-5-[3-methyl-2,6-dioxo-4-(trifluoromethyl)-1,2,3,6-tetrahydropyrimidin-1-yl]phenoxy}phenoxy]propionate] | – | – | – | – | – | – | – | 10 | –
